Converted amounts (≈) assume the structure as drawn. “Also recorded” adds a separate entry of the source. Where a name gives a salt, the structure may show the parent alone. Read-outs that look alike come from different tables or passages of the source.
Tests used:
[1] = test system: Colon 26 murine colon cancer cell; experiment: In vivo antitumor activity against Colon 26 murine colon cancer cell; design: species or system Balb/C mouse; conditions: 65 mg/kg p.o., once per 2 days for 10 days; tumor weight
Procedure: In vivo antitumor activity against Colon 26 murine colon cancer cell
Colon 26 murine cancer cells were injected into Balb/C mouse intradermally and grown in mouse abdominal skin to a solid tumor. The Colon 26 tumors were periodically excised from the mouse, digested with an enzyme mixture containing collagenase and DNase, and then intradermally reinjected into mouse for subculture.
The cells were washed, resuspended in saline (5×10^6 cells/ml) and inoculated (5×10^5 cells/0.1 ml) intradermally to abdominal part of Balb/C mouse of which hair was removed in advance. Each test compound was dissolved in a solvent mixture of 60% propylene glycol(PG), 40% cremophor RH60(CP), and distilled water(DW) in the volume ratio of 30:20:50. When the size of tumor reached at appropriate level, the test compound was administered orally into the mouse which was implanted with colon 26 tumor cells in the frequency of once per 2 days for 10 days. The vehicle was also administered into the mouse of control group. The major and minor axis of tumor in each group were regularly measured by vernier calipers to estimate the increase of the tumor volume. Tumor volume was calculated on the basis of the following formula
Tumor volume(mm^3)=(1/2)×[length of major axis(mm)]×[length
When the tumor volume of the control group reached at about 1500 mm^3, the test animals were sacrificed by cervical dislocation and tumor was carefully excised and weighed. The inhibition rate of tumor growth (%) of each test compound was calculated as follows: […]
group.div.Tumor weight of control group)]

Male Wistar Rat = experiment: Acute toxicity test (LD50); assay type: in vivo; conditions: gastric lavage
Procedure: (§1) Acute toxicity test (LD50)
(§2) Male Wistar Rat (Charles River Japan, ca, 6 weeks old) was used as test animal and sodium-carboxymethylcellulose (Na-CMC, Sigma Chemical, U.S.A.) was used as a vehicle control. Compounds 57 and 65 were suspended in 0.5% Na-CMC, respectively, before dosing. Test compounds were administered by gastric lavage with the dosage of 400, 550, 700, 850 and ^1000 mg/kg. Control group was treated only with 0.5% Na-CMC. Each group was consisted of 5 rats.

[2] = Acute toxicity test (LD50); assay type: in vivo; conditions: in vivo, po; gastric lavage, male Wistar rat; probit method; 95% confidence interval in parenthesis on the next line
Procedure: as §1, §2

[3] = test system: K562 (ATCC CCL 243): human chronic myelogenous leukemia; experiment: In vitro antitumor activity, MTT assay, K562; assay type: cell-based; conditions: for IC50: Homo sapiens, K562, 48 h
In short: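 K562 cells (10,000/well) pre-cultured 24 hrs, then exposed 48 hrs at 37° C. to serially 5-fold diluted compound, final 20 μg/ml to 0.00128 μg/ml, DMSO below 0.5%. MTT added 4 hrs; formazan dissolved in DMSO, A540 read. Cytotoxicity as test/control absorbance; IC50 by linear regression.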

[4] = test system: SK-OV-3 (ATCC HTB 77): human ovarian adenocarcinoma; experiment: In vitro antitumor activity, MTT assay, SK-OV-3; assay type: cell-based; conditions: for IC50: Homo sapiens
In short: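 Cells seeded at 10,000 per well, grown 24 h, then exposed 48 h at 37 °C to compound at final 20 to 0.00128 μg/ml (5-fold dilutions, DMSO below 0.5%). MTT added for 4 h, formazan dissolved in DMSO, absorbance read at 540 nm; IC50 estimated by linear regression.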

[5] = test system: A549 (ATCC CCL 185): human lung carcinoma; experiment: In vitro antitumor activity, MTT assay, A549; assay type: cell-based; conditions: for IC50: Homo sapiens, A549, 48 h
In short: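 A549 cells in RPMI 1640 with 10% FBS, 10,000 cells/well, pre-cultured 24 hrs, then exposed 48 hrs at 37° C to compound at 20 to 0.00128 μg/ml final (5-fold steps, DMSO below 0.5%). MTT added for 4 hrs, formazan dissolved in DMSO and read at 540nm; IC50 by linear regression of % of control.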

[6] = test system: P388 murine leukemia cells; experiment: In vivo antitumor activity against P388 murine leukemia cell; design: species or system BDF1 mouse; conditions: once per 2 days for 10 days, median survival time
Procedure: In vivo antitumor activity against P388 murine leukemia cell
P388 murine leukemia cells were injected into BDF1 mouse intraperitoneally and grown in the peritoneal cavity. The P388 cells were periodically exudated and reinjected intraperitoneally into mouse for subculture.
The cells were exudated, washed, resuspended in saline (2×10^7 cells/ml), and then injected intraperitoneally again into BDF1 mouse (2×10^6 cells/0.1 ml).
Test compound dissolved in appropriate vehicle was administered intraperitonealy or orally into the mouse which was implanted with P388 murine leukemia tumor cells in the frequency of once per 2 days for 10 days. The vehicle was administered into the mouse of control group. Then, the number of live animals were daily checked to estimate the median survival time (MST).
T/C ratio(%) of each test compound was calculated according to the following formula, and the test results are shown in Table 6.
T/C(%)=(MST of test group.div.MST of control group)×100

[7] = test system: Colo205 (ATCC CCL 222): human colon adenocarcinoma; experiment: In vitro antitumor activity, MTT assay, Colo205; assay type: cell-based; conditions: for IC50: Homo sapiens
In short: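 Colo205 cells in RPMI 1640/10% FBS were exposed 48 h at 37 °C to 5-fold serial dilutions, final 20 to 0.00128 µg/ml, DMSO below 0.5%. MTT added for 4 h, formazan dissolved in DMSO, A540 read versus medium control; IC50 by linear regression.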

[8] = test system: solid tumors and human tumor xenogafts; conditions: J. Med. Chem., 1990, 33, 2393; cited from earlier work
[9] = literature; cited from earlier work
[10] = COLO 205, Table 5, 48 hrs, read-out: IC50 (Colo205)

Nc1ccc(C(=O)N2CCc3cc(S(=O)(=O)N4CC(c5ccccc5)NC4=O)ccc32)cc1 (stereo not shown) [Example 57, 4-phenyl-1-[N-(4-aminobenzoyl)indoline-5-sulfonyl]-4,5-dihydro-2-imidazolone.HCl]
Inhibition rate of tumor growth (%) [1]: 67.4%
Acute toxicity, animals per group (dead/total) (Male Wistar Rat; 400 mg/kg): 0/5
Acute toxicity, animals per group (dead/total) (Male Wistar Rat; 550 mg/kg): 1/5
Acute toxicity, animals per group (dead/total) (Male Wistar Rat; 700 mg/kg): 3/5
Acute toxicity, animals per group (dead/total) (Male Wistar Rat; 850 mg/kg): 5/5
Acute toxicity, animals per group (dead/total) (Male Wistar Rat; 1000 mg/kg): 5/5
LD50 [2]: 644 mg/kg
IC50 ([3]; Table 4, read-out: IC50 (K562)): 0.203 µg/mL
IC50 ([4]; SK-OV-3, Table 4, 48 hrs): 0.572 µg/mL
IC50 ([5]; Table 4): 0.09 µg/mL
T/C rate (%) ([6]; 50 mg/kg p.o.): 133.3%
T/C rate (%) ([6]; 65 mg/kg p.o.): 146.0%
T/C rate (%) ([6]; 100 mg/kg i.p.): 166.7%
T/C rate (%) ([6]; 100 mg/kg p.o.): 175.0%

Nc1ccc(C(=O)N2CCc3cc(S(=O)(=O)N4C[C@H](c5ccccc5)NC4=O)ccc32)cc1 [Example 65, (S)-(+)-4-phenyl-1-[N-(4-aminobenzoyl)indoline-5-sulfonyl]-4,5-dihydro-2-imidazolone.HCl]
Inhibition rate of tumor growth (%) [1]: 69.2%
IC50 ([3]; Table 5, read-out: IC50 (K562)): 0.829 µg/mL
IC50 ([4]; SK-OV-3, Table 5, 48 hrs): 0.062 µg/mL
IC50 ([5]; Table 5): 0.105 µg/mL
T/C rate (%) ([6]; 65 mg/kg p.o.): 138.5%
IC50 [7, 10]: 0.268 µg/mL

Cl.NC(Cc1ccccc1)C(=O)Nc1ccc(C(=O)N2CCc3cc(S(=O)(=O)N4C[C@H](c5ccccc5)NC4=O)ccc32)cc1 (stereo partly drawn) [Example 68, (S)-(-)-4-phenyl-1-[N-{4-(2-amino-3-phenyl-propanoyl)aminobenzoyl}indoline-5-sulfonyl]-4,5-dihydro-2-imidazolone.HCl]
Inhibition rate of tumor growth (%) [1]: 45.3%
IC50 (K562) ([3]; Table 5, 48 hrs): 0.561 µg/mL
IC50 (SK-OV-3) ([4]; Table 5, 48 hrs): 0.137 µg/mL
IC50 (A549) ([5]; Table 5, 48 hrs): 0.083 µg/mL
IC50 (Colo205) ([7]; Table 5, 48 hrs): 0.598 µg/mL

O=C(Nc1ccc(Cl)cc1)NS(=O)(=O)c1ccc2c(c1)CCC2 [Sulofenur, reference compound]
IC50 ([3]; Table 3, read-out: IC50 (K562)): 17.6 µg/mL (≈ 50.1 µM)
IC50 ([3]; Table 4, read-out: IC50 (K562)): 17.6 µg/mL (≈ 50.1 µM)
IC50 ([3]; Table 5, read-out: IC50 (K562)): 17.6 µg/mL (≈ 50.1 µM)
IC50 ([4]; SK-OV-3, Table 5, 48 hrs): 78.2 µg/mL (≈ 223 µM)
antitumor activity [8]: exhibits potent antitumor activity upon solid tumors; also recorded: exceptionally broad spectrum of activity upon solid tumors and human tumor xenogafts
side effects [9]: does not produce serious side effects including myelosuppression, nausea, vomiting, alopecia, mucositis, and hepatotoxicity; also recorded: only shows minor side effects such as anemia or methemoglobinemia
IC50 ([5]; Table 1): 12.8 µg/mL (≈ 36.4 µM)
IC50 ([5]; Table 3): 12.8 µg/mL (≈ 36.4 µM)
IC50 ([5]; Table 4): 12.8 µg/mL (≈ 36.4 µM)
IC50 ([5]; Table 5): 12.8 µg/mL (≈ 36.4 µM)
IC50 ([7]; COLO 205, Table 3, 48 hrs, read-out: IC50 (Col205)): 48.9 µg/mL (≈ 139 µM)
IC50 [7, 10]: 48.9 µg/mL (≈ 139 µM)

— patent US5932742A, “Arylsulfonylimidazolone derivatives as an antitumor agent” (priority 1996, dated 1999)
